Laboratory results taken from patent publication US8901118B2, “Compounds and methods for kinase modulation, and indications therefor” (Plexxikon Inc., priority 2010, dated 2014).

Molecular target: T1, Flt-3 kinase (Homo sapiens, UniProt P36888)
T1 sequence (P36888 27-993): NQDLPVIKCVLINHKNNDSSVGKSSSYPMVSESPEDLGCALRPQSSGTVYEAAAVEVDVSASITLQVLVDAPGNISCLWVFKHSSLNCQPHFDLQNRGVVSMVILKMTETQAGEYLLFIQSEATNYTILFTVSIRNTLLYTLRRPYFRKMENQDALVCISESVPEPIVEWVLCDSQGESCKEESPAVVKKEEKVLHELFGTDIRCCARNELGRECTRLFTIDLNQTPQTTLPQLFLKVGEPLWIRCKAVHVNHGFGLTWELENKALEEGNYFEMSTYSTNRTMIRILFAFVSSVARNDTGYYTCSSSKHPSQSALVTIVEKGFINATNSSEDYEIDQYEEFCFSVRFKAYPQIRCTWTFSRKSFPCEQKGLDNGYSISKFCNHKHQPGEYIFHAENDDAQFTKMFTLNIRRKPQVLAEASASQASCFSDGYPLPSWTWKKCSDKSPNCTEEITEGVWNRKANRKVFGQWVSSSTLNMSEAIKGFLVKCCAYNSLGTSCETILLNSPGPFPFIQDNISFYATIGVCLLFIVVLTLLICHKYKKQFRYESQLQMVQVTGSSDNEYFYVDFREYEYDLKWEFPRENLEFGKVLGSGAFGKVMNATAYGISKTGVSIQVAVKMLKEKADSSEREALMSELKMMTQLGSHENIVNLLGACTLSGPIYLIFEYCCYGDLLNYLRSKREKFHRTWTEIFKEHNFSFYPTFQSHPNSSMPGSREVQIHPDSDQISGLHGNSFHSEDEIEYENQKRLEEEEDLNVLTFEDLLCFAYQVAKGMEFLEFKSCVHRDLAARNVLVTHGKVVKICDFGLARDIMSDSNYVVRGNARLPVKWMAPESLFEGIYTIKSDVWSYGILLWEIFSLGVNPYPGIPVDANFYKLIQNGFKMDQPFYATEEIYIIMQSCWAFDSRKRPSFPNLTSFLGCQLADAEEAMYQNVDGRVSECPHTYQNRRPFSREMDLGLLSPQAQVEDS
Test: Flt-3 kinase biochemical activity assay (AlphaScreen)
Settings: 100 μM ATP; read-out: Biochemical Inhibition IC50 Flt3
Procedure: In one assay the biochemical activity IC50 values are determined with respect to inhibition of Flt-3 kinase activity, where inhibition of phosphorylation of a peptide substrate is measured as a function of compound concentration. Compounds to be tested, dissolved in DMSO (1 μL), are added to a white 384-well plate (Costar #3705). Working stocks of Flt-3 kinase (Invitrogen), biotin-(E4Y)10 substrate (Upstate Biotech, Cat#12-440), and ATP (Sigma, Cat#A-3377) are prepared in 25 mM Hepes pH 7.5, 5 mM MgCl2, 5 mM MnCl2, 1 mM DTT, and 0.01% Tween-20. All components are added to the 384-well plate for a final concentration of 1 ng/well Flt-3, 30 nM biotin-(E4Y)10 and 100 μM ATP in a volume of 20 μL. Each sample is at 5% DMSO. The plate is then incubated for 1 hour at room temperature. Just before use, working stocks of donor and acceptor beads from the AlphaScreen PY20 Detection Kit (PerkinElmer, Cat#676601M) are prepared in 25 mM Hepes pH 7.5, pH 7.4, 100 mM EDTA. 0.3% BSA. To stop the reaction, the plate is uncovered in the dark and 5 μL of Donor Beads solution (Streptavidin beads) is added to each well. The plate is incubated at room temperature for 20 minutes. Five microliters of Acceptor Beads solution (PY20 coated beads) are then added to each well. The final concentration of each bead is 10 μg/mL. The plates are incubated at room temperature for 60 minutes. Fluorescence signal is recorded on the Envision reader. Phosphorylated substrate results in binding of the PY20 antibody and association of the donor and acceptor beads such that signal correlates with kinase activity. The signal vs. compound concentration is used to determine the IC50.

Compound | IC50
Cc1cnc2[nH]cc(Cc3cnc(Nc4ccc(F)cc4)nc3)c2c1 [Compound P-3010, (4-Fluoro-phenyl)-[5-(5-methyl-1H-pyrrolo[2,3-b]pyridin-3-ylmethyl)-pyrimidin-2-yl]-amine] | < 100 nM
Clc1ccc(Nc2ncc(Cc3c[nH]c4ncc(Cl)cc34)cn2)cc1 [Compound P-3011, (4-Chloro-phenyl)-[5-(5-chloro-1H-pyrrolo[2,3-b]pyridin-3-ylmethyl)-pyrimidin-2-yl]-amine] | < 10 nM
Fc1ccc(Nc2ncc(Cc3c[nH]c4ncc(Cl)cc34)cn2)cc1 [Compound P-3012, [5-(5-Chloro-1H-pyrrolo[2,3-b]pyridin-3-ylmethyl)-pyrimidin-2-yl]-(4-fluoro-phenyl)-amine] | < 100 nM
Fc1nc(NC2CCC(F)(F)CC2)ccc1Cc1c[nH]c2ncc(Cl)cc12 [Compound P-3013, [5-(5-Chloro-1H-pyrrolo[2,3-b]pyridin-3-ylmethyl)-6-fluoro-pyridin-2-yl]-(4,4-difluoro-cyclohexyl)-amine] | > 1000 nM
Fc1ccccc1Nc1ncc(Cc2c[nH]c3ncc(Cl)cc23)cn1 [Compound P-3014, [5-(5-Chloro-1H-pyrrolo[2,3-b]pyridin-3-ylmethyl)-pyrimidin-2-yl]-(2-fluoro-phenyl)-amine] | < 1000 nM
Clc1cnc2[nH]cc(Cc3cnc(Nc4ccccc4Cl)nc3)c2c1 [Compound P-3015, (2-Chloro-phenyl)-[5-(5-chloro-1H-pyrrolo[2,3-b]pyridin-3-ylmethyl)-pyrimidin-2-yl]-amine] | < 100 nM
